From patent US12370231B2, “Compositions for inhibiting degradation of hyaluronic acid and methods of use thereof” (Epidarus Therapeutics, LLC, priority 2020, dated 2025)

Columns and labels:
Type in all cases: biochemical
HYAL1 [1] = biological target: T1, HYAL1 (Homo sapiens, UniProt Q12794); test: HYAL1-inhibitory activity of Epidarus extracts after simulated digestion with additives/excipients; conditions: test ingredient with Epidarus extracts, after simulated gastric and intestinal digestion
T1 construct: Human HYAL1 enzyme was isolated from urine following published protocols; from tissue; host or cells: human urine
T1 sequence (Q12794 22-435): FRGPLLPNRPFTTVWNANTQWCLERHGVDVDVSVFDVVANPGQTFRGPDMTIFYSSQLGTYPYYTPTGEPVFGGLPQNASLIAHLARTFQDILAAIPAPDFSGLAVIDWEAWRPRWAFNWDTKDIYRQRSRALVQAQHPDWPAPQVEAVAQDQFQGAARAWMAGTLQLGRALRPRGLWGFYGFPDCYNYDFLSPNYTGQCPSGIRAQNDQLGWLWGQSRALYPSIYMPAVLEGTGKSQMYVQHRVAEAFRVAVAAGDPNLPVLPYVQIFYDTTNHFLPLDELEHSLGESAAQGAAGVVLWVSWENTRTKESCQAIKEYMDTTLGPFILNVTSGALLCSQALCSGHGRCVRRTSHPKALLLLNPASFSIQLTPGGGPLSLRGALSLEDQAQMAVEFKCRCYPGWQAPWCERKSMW
Procedure: In order to develop bio-active formulations for osteoarthritis and bladder […] cystitis therapies in humans and animals, oral bio-availability studies were undertaken. […] Maltodextrin is a partially hydrolyzed vegetable starch and is made from corn, rice, potato starch, wheat, or other vegetable sources. […] The gastric digest was adjusted to pH 6.8 with 1M Sodium Hydroxide and mixed with an equivalent volume of Simulated Intestinal Fluid (SIF) to which was added a commercial preparation of canine pancreatic enzymes, at the following concentrations: Lipase (2,000 to 10,000 Units per ml), Protease (100 to 1,000 Units per ml), Amylase (200 to 2,000 Units per ml) and Bile Salts to 10 mM. Following the simulated complete digestion of the chew/tablet formulations, the levels of active ingredients were assayed and the HYAL1-inhibitory activity was determined. These assays were used to test a range of additives/excipients used in the production of functional nutritional supplements for human and animal use.

HYAL1 [2] = biological target: T1, HYAL1; test: Anti-HYAL1 activity of Epidarus Extract Mix after incubation with antimicrobial agents; conditions: agent at 0.3%; 5 mg/ml Epidarus Extract Mix in 5% 1,3 Propanediol/Water, 48 hours, 37 degrees; relative to control without agent
Procedure: In order to achieve stable, bio-active cosmeceutical formulations, a range of commercially available cosmetic ingredients were assessed for their ability to solubilize the Prunella, Linden or Star Anise extracts or mixed extracts of Prunella, Linden or Star Anise without compromising the HYAL1—inhibitory activity of the botanical extracts. These included, for example: Sepigel 305™, Simugel 600™, Arlasolve™-DMI, Carbopol® Ultrez 21, Hydrolyte®5, Hydrolyte®6 and Zemea® 1,3 Propanediol. In addition, a number of preservative/antimicrobial compounds were similarly assessed for efficacy and effects on biological activity of the added botanical extracts. These included, for example: Phenoxyethanol, Optiphen™ (Phenoxyethanol and Caprylyl Glycol), Methylparaben and Chlorphenesin.
The antimicrobial agents were incubated in a solution of 5% 1,3 Propanediol/Water containing 5 mg/ml of Epidarus Extract Mix (Prunella, Star Anise and Linden) at the indicated concentrations for 48 hours at 37 degrees Centigrade. The anti-HYAL1 activity was measured relative to a control without added antimicrobial agents.

HYAL1 [3] = biological target: T1, HYAL1; test: HYAL1 degradation of synovial fluid HA; conditions: 12 ug Synovial Fluid HA per assay, 2 hours, 37 degrees
Procedure: Human HYAL1 enzyme was isolated from urine following published protocols (Afify, A. M. et al. Archives of Biochemistry and Biophysics 305, 434-441, 1993). The enzyme activity was calibrated and validated by comparison to commercially available recombinant human HYAL1 (R&D Systems, USA).
Synovial fluid from healthy joints is a solution of 5 to 7 mg/ml of High Molecular weight Hyaluronic Acid. The bovine metacarpopharangeal joints used in these experiments were from 2 year old steers and the synovial fluid was verified by Agarose Gel electrophoresis to be composed of predominantly High MW HA.
Degradation of Synovial Fluid by urinary HYAL1 breaks down the HA to tetra-saccharides in 2 hours at 37 degrees, using a standard HYAL1 assay, testing 12 ug Synovial Fluid HA per assay.
An extract mixture containing Star Anise Pod Extract, Linden Flower Extract and Prunella Flower Spike Extract was also tested to determine the minimum concentration of extract mix required to achieve 100% inhibition of Synovial Fluid HA under the same conditions as used for pentosan polysulfate. This concentration was determined to be 280 ng/ml.

CCCCCCCCCCCCCCCCCC(=O)O [Stearic Acid]
% Inhibition of anti-HYAL1 activity (HYAL1 [1]): 0%

COC(=O)c1ccc(O)cc1 [Methylparaben]
Anti-HYAL1 Activity (HYAL1 [2]): 45%

pentosan polysulfate
concentration causing 100% inhibition of HYAL1 (HYAL1 [3]): 156 ng/mL
